Test results taken from PubChem BioAssay AID602350 (Broad Institute, 2012).

Molecular target: Protein disulfide-isomerase (Homo sapiens) (UniProt P07237)
Test: inhibition of PDI-driven insulin aggregation – biochemical, turbidity, absorbance, cherry-picked samples, dose response (AID 602350);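 further: potency is for inhibitors that reduce insulin aggregation absorbance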
Details: recombinant PDI insulin aggregation, absorbance 650 nm, 90 min

Protein disulfide-isomerase (Homo sapiens), sequence (P07237 whole entry, looked up): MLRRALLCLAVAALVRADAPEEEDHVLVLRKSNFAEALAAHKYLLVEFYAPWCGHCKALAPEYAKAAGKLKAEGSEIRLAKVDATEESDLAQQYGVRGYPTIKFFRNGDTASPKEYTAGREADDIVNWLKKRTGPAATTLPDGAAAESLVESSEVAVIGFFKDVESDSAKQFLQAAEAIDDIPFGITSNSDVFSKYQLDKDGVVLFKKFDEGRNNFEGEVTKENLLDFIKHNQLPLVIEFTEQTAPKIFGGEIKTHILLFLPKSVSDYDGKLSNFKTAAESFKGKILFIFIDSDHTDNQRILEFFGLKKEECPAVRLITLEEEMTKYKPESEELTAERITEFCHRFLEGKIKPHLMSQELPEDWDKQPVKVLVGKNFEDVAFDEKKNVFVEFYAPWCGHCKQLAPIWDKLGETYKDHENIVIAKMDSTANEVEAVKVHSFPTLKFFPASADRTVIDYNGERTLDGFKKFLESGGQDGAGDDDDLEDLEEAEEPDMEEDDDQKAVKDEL

## Cc1noc(C)c1S(=O)(=O)Nc1ccc2c(c1)CC(=O)N([C@@H](C)CO)C[C@@H](C)[C@H](CN(C)S(=O)(=O)c1ccc(F)cc1)O2
  AC50: 19.5 µM
